According to PubChem BioAssay (NCI):
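GI50: concentration for 50% inhibition of growth. TGI is the concentration that stops growth completely.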

Legend:
Experiment in all cases: inhibition of tumour cell growth, NCI panel, 384-well format; in the data active = GI50 below about 0.43 µM; inactive = the rest
K-562 leukemia = system: K-562 leukemia
COLO 205 colon = system: COLO 205 colon
CCRF-CEM leukemia = system: CCRF-CEM leukemia
NCI-H23 lung = system: NCI-H23 lung
M14 melanoma = system: M14 melanoma
OVCAR-3 ovarian = system: OVCAR-3 ovarian
OVCAR-8 ovarian = system: OVCAR-8 ovarian
KM12 colon = system: KM12 colon
OVCAR-5 ovarian = system: OVCAR-5 ovarian
SK-MEL-5 melanoma = system: SK-MEL-5 melanoma
MOLT-4 leukemia = system: MOLT-4 leukemia
EKVX NSCLC = system: EKVX NSCLC
SF-295 CNS = system: SF-295 CNS

O=C(Nc1cnn2ccc(N3CCC[C@@H]3c3cc(F)ccc3F)nc12)N1CC[C@H](O)C1
inactive: GI50 (K-562 leukemia) > 100 µM | GI50 (COLO 205 colon) > 100 µM | GI50 (CCRF-CEM leukemia) > 100 µM | GI50 (NCI-H23 lung) > 100 µM | GI50 (M14 melanoma) > 100 µM | GI50 (OVCAR-3 ovarian) > 100 µM | GI50 (OVCAR-8 ovarian) > 100 µM | GI50 (OVCAR-5 ovarian) > 100 µM | GI50 (SK-MEL-5 melanoma) > 100 µM | GI50 (MOLT-4 leukemia) 77.1 µM | GI50 (EKVX NSCLC) > 100 µM | GI50 (SF-295 CNS) > 100 µM
> 100 µM: TGI (K-562 leukemia) | TGI (COLO 205 colon) | TGI (CCRF-CEM leukemia) | TGI (NCI-H23 lung) | TGI (M14 melanoma) | TGI (OVCAR-3 ovarian) | TGI (OVCAR-8 ovarian) | TGI (KM12 colon) | TGI (OVCAR-5 ovarian) | TGI (SK-MEL-5 melanoma) | TGI (MOLT-4 leukemia) | TGI (EKVX NSCLC) | TGI (SF-295 CNS)
active: GI50 (KM12 colon) 0.0181 µM

COc1ncc(-c2nc3c(n2C(C)C)[C@H](c2ccc(Cl)cc2)N(c2cc(Cl)cn(C)c2=O)C3=O)c(OC)n1
90 µM: TGI (OVCAR-3 ovarian)
51.7 µM: TGI (CCRF-CEM leukemia)
> 100 µM: TGI (K-562 leukemia) | TGI (COLO 205 colon) | TGI (NCI-H23 lung) | TGI (M14 melanoma) | TGI (OVCAR-8 ovarian) | TGI (KM12 colon) | TGI (OVCAR-5 ovarian) | TGI (EKVX NSCLC) | TGI (SF-295 CNS)
5.15 µM: TGI (MOLT-4 leukemia)
29.6 µM: TGI (SK-MEL-5 melanoma)
inactive: GI50 (K-562 leukemia) 33.2 µM | GI50 (COLO 205 colon) 62.6 µM | GI50 (CCRF-CEM leukemia) 22.9 µM | GI50 (NCI-H23 lung) 60.6 µM | GI50 (M14 melanoma) 48.5 µM | GI50 (OVCAR-3 ovarian) 33.3 µM | GI50 (OVCAR-8 ovarian) 66.1 µM | GI50 (KM12 colon) 49.8 µM | GI50 (OVCAR-5 ovarian) > 100 µM | GI50 (SK-MEL-5 melanoma) 12.7 µM | GI50 (MOLT-4 leukemia) 2.06 µM | GI50 (EKVX NSCLC) 58.7 µM | GI50 (SF-295 CNS) 63.6 µM
